The source made the active and inactive calls. No rule for the calls is given here.
Test system: GENE-TOX genotoxicity assays, various organisms and cells
Assay: GENE-TOX mutagenicity studies
Excerpt: GENE-TOX provides genetic toxicology (mutagenicity) test data from expert peer review of open scientific literature for more than 3,000 chemicals from the United States Environmental Protection Agency (EPA). GENE-TOX was established to select assay systems for evaluation, review data in the scientific literature, and recommend proper testing protocols and evaluation procedures for these systems.
GENE-TOX covers the years 1991 - 1998. It is no longer updated.
This is an archive assay for GENE-TOX mutagenicity studies.

[1] = Species/Cell Type: Salmonella typhimurium (one or more of the five standard strains: TA98, TA100, TA1535, TA1537, and TA1538), Assay Type: Histidine reverse gene mutation, Ames assay, Assay Code: SAL+*, Activation: With metabolic activation, Evaluation Type: Evaluation A (Pre-1980)
[2] = Species/Cell Type: Human, Assay Type: Sister-chromatid exchange (SCE) in vitro, Assay Code: SC1+D, Dose Response: With dose response, Evaluation Type: Evaluation B (Post-1980)
[3] = Species/Cell Type: Human lymphocytes, Assay Type: Sister-chromatid exchange (SCE) in vitro, Assay Code: SCL+D, Dose Response: With dose response, Evaluation Type: Evaluation B (Post-1980)
[4] = Species/Cell Type: Nonhuman, Assay Type: Sister-chromatid exchange (SCE) in vitro, Assay Code: SC2+D*, Activation: With metabolic activation, Dose Response: With dose response, Evaluation Type: Evaluation B (Post-1980)

**Q.** `Cc1cc(-c2ccccc2C)ccc1N` was tested. Which mutagenic call (Species/Cell Type: Escherichia coli polA (W3110 vs P3478), Assay Type: Rec-assay, DNA effects (bacterial DNA repair), Assay Code: RE2+, Evaluation Type: Evaluation A (Pre-1980)) did it give?
**A.** active; positive

**Q.** And the mutagenic call (Species/Cell Type: Escherichia coli polA (W3119 vs P3478), Assay Type: Rec-assay, DNA effects (bacterial DNA repair), Assay Code: RE1T, Evaluation Type: Evaluation A (Pre-1980))?
**A.** no conclusion

**Q.** What about the mutagenic call (Species/Cell Type: Rat primary hepatocytes, Assay Type: Unscheduled DNA synthesis (UDS) in vitro, DNA effects, Assay Code: UDP+, Evaluation Type: Evaluation A (Pre-1980)) of the same compound?
**A.** active; positive

**Q.** What about the mutagenic call (Species/Cell Type: Saccharomyces cerevisiae, Assay Type: Mitotic recombination or gene conversion, Assay Code: YEH-, Evaluation Type: Evaluation A (Pre-1980)) of the same compound?
**A.** inactive; negative

**Q.** What about the mutagenic call [1] of the same compound?
**A.** active; positive

**Q.** And the mutagenic call (Species/Cell Type: Salmonella typhimurium, Assay Type: Forward and reverse gene mutation, body fluid assay, Assay Code: BFU+, Evaluation Type: Evaluation A (Pre-1980))?
**A.** active; positive

**Q.** What about the mutagenic call (Species/Cell Type: Salmonella typhimurium, Assay Type: Forward and reverse gene mutation, host-mediated assay, Assay Code: HMA+, Evaluation Type: Evaluation A (Pre-1980)) of the same compound?
**A.** active; positive

**Q.** And the mutagenic call (Species/Cell Type: Syrian hamster embryo (SHE) cells, Assay Type: Cell transformation, clonal assay, Assay Code: CTC+D, Dose Response: With dose response, Evaluation Type: Evaluation A (Pre-1980))?
**A.** active; positive

**Q.** `CCCCC/C=C/C=C/C(=O)NCC(C)C` was tested. Which mutagenic call (Species/Cell Type: Allium cepa, Assay Type: Chromosome aberrations, Assay Code: ALC+, Evaluation Type: Evaluation A (Pre-1980)) did it give?
**A.** active; positive

**Q.** Which mutagenic call (Species/Cell Type: Salmonella typhimurium (one or more of the five standard strains: TA98, TA100, TA1535, TA1537, and TA1538), Assay Type: Histidine reverse gene mutation, Ames assay, Assay Code: SAL+, Evaluation Type: Evaluation A (Pre-1980)) does the source give for `O=C1c2c(O)ccc(Cl)c2C(=O)c2c(O)ccc(Cl)c21` here?
**A.** active; positive

**Q.** For `O=C1c2cccc(O)c2C(=O)c2c(O)cc(CO)cc21`, which mutagenic call (Species/Cell Type: Salmonella typhimurium (one or more of the five standard strains: TA98, TA100, TA1535, TA1537, and TA1538), Assay Type: Histidine reverse gene mutation, Ames assay, Assay Code: SAL+/-*, Activation: With metabolic activation, Evaluation Type: Evaluation A (Pre-1980)) is on record?
**A.** inactive; positive without activation, negative with activation

**Q.** Which mutagenic call [2] does the source give for `Nc1nccc2c1[nH]c1ccccc12` here?
**A.** active; positive

**Q.** What about the mutagenic call (Species/Cell Type: Nonhuman, Assay Type: Sister-chromatid exchange (SCE) in vitro, Assay Code: SC2T, Evaluation Type: Evaluation B (Post-1980)) of the same compound?
**A.** no conclusion

**Q.** `Nc1ccc2c(n1)[nH]c1ccccc12` was tested. Which mutagenic call (Species/Cell Type: Human, Assay Type: Sister-chromatid exchange (SCE) in vitro, Assay Code: SC1+D*, Activation: With metabolic activation, Dose Response: With dose response, Evaluation Type: Evaluation B (Post-1980)) did it give?
**A.** active; positive

**Q.** How did the mutagenic call [2] turn out when `O=c1[nH]c(=O)n([C@H]2C[C@H](O)[C@@H](CO)O2)cc1/C=C/I` was run?
**A.** active; positive

**Q.** Which results are given for `Cc1nc(N)cc2[nH]c3ccccc3c12`?
**A.** mutagenic call (Species/Cell Type: Chinese hamster ovary (CHO) cells, Assay Type: Forward gene mutation at the HPRT locus, Assay Code: CHO+*, Activation: With metabolic activation, Evaluation Type: Evaluation B (Post-1980)): active; positive; mutagenic call [3]: active; positive; mutagenic call [2]: active; positive; call (Species/Cell Type: Nonhuman, Assay Type: In vivo carcinogenicity studies, Assay Code: CCG+, Evaluation Type: Evaluation A (Pre-1980)): active; positive; mutagenic call [4]: active; positive; mutagenic call (Species/Cell Type: Nonhuman, Assay Type: Sister-chromatid exchange (SCE) in vivo, Assay Code: SC3+D, Dose Response: With dose response, Evaluation Type: Evaluation B (Post-1980)): active; positive; mutagenic call [1]: active; positive

**Q.** How did the mutagenic call [3] turn out when `Cc1occc(=O)c1O` was run?
**A.** active; positive

**Q.** What about the mutagenic call [2] of the same compound?
**A.** active; positive

**Q.** With `[2H]C1([2H])CNP(=O)(N(CCCl)CCCl)OC1` (stereo not given) as the compound, how does the mutagenic call [4] read?
**A.** active; positive

**Q.** For `Nc1nc(-c2cccc3ccccc23)cs1`, which mutagenic call (Species/Cell Type: Salmonella typhimurium, Assay Type: Forward and reverse gene mutation, host-mediated assay, Assay Code: HMAT, Evaluation Type: Evaluation A (Pre-1980)) is on record?
**A.** no conclusion

**Q.** `Cc1ccc(N=O)cc1` was tested. Which mutagenic call (Species/Cell Type: Saccharomyces cerevisiae, Assay Type: Mitotic recombination or gene conversion, Assay Code: YEC+, Evaluation Type: Evaluation A (Pre-1980)) did it give?
**A.** active; positive

**Q.** Which mutagenic call (Species/Cell Type: Mammalian polychromatic erythrocytes, Assay Type: Micronucleus test, chromosome aberrations, Assay Code: MNT-, Evaluation Type: Evaluation B (Post-1980)) does the source give for `Cn1sccc1=O` here?
**A.** inactive; negative

**Q.** `N[C@H](Cc1ccc(N(CCCl)CCCl)cc1)C(=O)O` was tested. Which mutagenic call (Species/Cell Type: Drosophila melanogaster, Assay Type: Sex-linked recessive lethal gene mutation, Assay Code: SRL+, Evaluation Type: Evaluation A (Pre-1980)) did it give?
**A.** active; positive

**Q.** How did the mutagenic call (Species/Cell Type: Mammalian polychromatic erythrocytes, Assay Type: Micronucleus test, chromosome aberrations, Assay Code: MNTT, Evaluation Type: Evaluation B (Post-1980)) turn out when `Cc1cc(N)c(N)cc1C` was run?
**A.** no conclusion
